Results from PubChem BioAssay AID256 (DTP/NCI, 2004).
“And” between values parts separate entries of the source, which are not always exact repeats. Equal values may be shown once. Toxic doses and inconclusive results are not listed. The calls were made as follows: active = survival T/C of 150% or more; inactive = T/C below 125% in these data.

System: CD2F1 mice, L1210 leukemia ip, survival T/C
Experiment: NCI In Vivo Anticancer Drug Screen. Data for tumor model L1210 Leukemia (intraperitoneal) in CD2F1 (CDF1) mice
Settings: higher = longer survival
Method in brief: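 Ratio T/C, where T is the treated-group value and C the vehicle-dosed control value, from mice implanted with a transplantable tumor.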

[1] = endpoint: mean survival time, dose: 100.0 mg/kg/injection, schedule: Q04DX003 (ip), vehicle: saline with Tween-80
[2] = endpoint: mean survival time, dose: 200.0 mg/kg/injection, schedule: Q04DX003 (ip), vehicle: saline with Tween-80
[3] = endpoint: mean survival time, dose: 400.0 mg/kg/injection, schedule: Q04DX003 (ip), vehicle: saline with Tween-80

Measured: T/C

C/C(=N\N(C)C)C(C)(C)C
inactive: endpoint: mean survival time, dose: 75.0 mg/kg/injection, schedule: Q01DX001 (ip), vehicle: saline 93 % of control | endpoint: mean survival time, dose: 150.0 mg/kg/injection, schedule: Q01DX001 (ip), vehicle: saline 100 % of control | endpoint: mean survival time, dose: 300.0 mg/kg/injection, schedule: Q01DX001 (ip), vehicle: saline 108 % of control

O=S(=O)(F)c1ccc2nc(-c3cccc(Sc4ccccc4)c3)cc(Cl)c2c1
inactive: endpoint: mean survival time, dose: 100.0 mg/kg/injection, schedule: Q01DX009 (ip), vehicle: saline with Tween-80 97 % of control | [1] 97 % of control | endpoint: mean survival time, dose: 200.0 mg/kg/injection, schedule: Q01DX009 (ip), vehicle: saline with Tween-80 93 % of control | [2] 90 % of control | endpoint: mean survival time, dose: 400.0 mg/kg/injection, schedule: Q01DX009 (ip), vehicle: saline with Tween-80 97 % of control | [3] 96 % of control

OCC1OC(n2cnc3c(OC4CCCC4)ncnc32)C(O)C1O (stereo unspecified)
inactive: endpoint: mean survival time, dose: 100.0 mg/kg/injection, schedule: Q01DX001 (ip), vehicle: saline 101 % of control | endpoint: mean survival time, dose: 200.0 mg/kg/injection, schedule: Q01DX001 (ip), vehicle: saline 100 % of control | endpoint: mean survival time, dose: 400.0 mg/kg/injection, schedule: Q01DX001 (ip), vehicle: saline 100 % of control

O=C1CSC(c2cccs2)N1c1nncs1 (stereo unspecified)
inactive: endpoint: median survival time, dose: 25.0 mg/kg/injection, schedule: Q01DX005 (ip), vehicle: Klucel (hydroxypropylcellulose) (HPC) 94 % of control | endpoint: median survival time, dose: 50.0 mg/kg/injection, schedule: Q01DX005 (ip), vehicle: Klucel (hydroxypropylcellulose) (HPC) 102 % of control and 104 % of control and 110 % of control | endpoint: median survival time, dose: 100.0 mg/kg/injection, schedule: Q01DX005 (ip), vehicle: Klucel (hydroxypropylcellulose) (HPC) 94 % of control and 96 % of control and 103 % of control | endpoint: median survival time, dose: 200.0 mg/kg/injection, schedule: Q01DX005 (ip), vehicle: Klucel (hydroxypropylcellulose) (HPC) 116 % of control and 94 % of control (2×) | endpoint: median survival time, dose: 400.0 mg/kg/injection, schedule: Q01DX005 (ip), vehicle: Klucel (hydroxypropylcellulose) (HPC) 107 % of control | endpoint: median survival time, dose: 800.0 mg/kg/injection, schedule: Q01DX005 (ip), vehicle: Klucel (hydroxypropylcellulose) (HPC) 115 % of control

NC(=O)C1(N2CCCCC2)CCN(CCCC(=O)c2ccc(F)cc2)CC1
inactive: endpoint: mean survival time, dose: 25.0 mg/kg/injection, schedule: Q01DX009 (ip), vehicle: saline 101 % of control | endpoint: mean survival time, dose: 50.0 mg/kg/injection, schedule: Q01DX009 (ip), vehicle: saline 101 % of control

c1ccc2c3c([nH]c2c1)CN1CCNCC1C3 (stereo unspecified)
inactive: endpoint: mean survival time, dose: 6.25 mg/kg/injection, schedule: Q01DX009 (ip), vehicle: saline with Tween-80 98 % of control | endpoint: mean survival time, dose: 12.5 mg/kg/injection, schedule: Q01DX009 (ip), vehicle: saline with Tween-80 100 % of control | endpoint: mean survival time, dose: 25.0 mg/kg/injection, schedule: Q01DX009 (ip), vehicle: saline with Tween-80 100 % of control

CN(C)C1c2ccccc2-c2ccccc21
inactive: endpoint: mean survival time, dose: 50.0 mg/kg/injection, schedule: Q01DX001 (ip), vehicle: carboxymethylcellulose (CMC) 104 % of control | endpoint: mean survival time, dose: 100.0 mg/kg/injection, schedule: Q01DX001 (ip), vehicle: carboxymethylcellulose (CMC) 104 % of control | endpoint: mean survival time, dose: 200.0 mg/kg/injection, schedule: Q01DX001 (ip), vehicle: carboxymethylcellulose (CMC) 104 % of control | endpoint: mean survival time, dose: 400.0 mg/kg/injection, schedule: Q01DX001 (ip), vehicle: carboxymethylcellulose (CMC) 110 % of control

CC(C)(C)OC(=O)NC(CCCCNC(=O)OCc1ccccc1)C(=O)Oc1ccc([N+](=O)[O-])cc1 (stereo unspecified)
inactive: [1] 91 % of control | [2] 86 % of control | [3] 86 % of control

Nc1ccc(NC(=O)Nc2ccccc2)cc1
inactive: endpoint: mean survival time, dose: 100.0 mg/kg/injection, schedule: Q01DX001 (ip), vehicle: Klucel (hydroxypropylcellulose) (HPC) 88 % of control | endpoint: mean survival time, dose: 200.0 mg/kg/injection, schedule: Q01DX001 (ip), vehicle: Klucel (hydroxypropylcellulose) (HPC) 96 % of control | endpoint: mean survival time, dose: 400.0 mg/kg/injection, schedule: Q01DX001 (ip), vehicle: Klucel (hydroxypropylcellulose) (HPC) 96 % of control

CCCNC(=O)Oc1ccc(Br)cc1Br
inactive: endpoint: mean survival time, dose: 50.0 mg/kg/injection, schedule: Q01DX009 (ip), vehicle: Klucel (hydroxypropylcellulose) (HPC) 108 % of control | endpoint: mean survival time, dose: 100.0 mg/kg/injection, schedule: Q01DX009 (ip), vehicle: Klucel (hydroxypropylcellulose) (HPC) 97 % of control | endpoint: mean survival time, dose: 200.0 mg/kg/injection, schedule: Q01DX009 (ip), vehicle: Klucel (hydroxypropylcellulose) (HPC) 94 % of control

Nc1ncnc2nc(C3COCCO3)[nH]c12 (stereo unspecified)
inactive: endpoint: mean survival time, dose: 12.5 mg/kg/injection, schedule: Q01DX005 (ip), vehicle: distilled water + Tween-80 90 % of control | endpoint: mean survival time, dose: 25.0 mg/kg/injection, schedule: Q01DX005 (ip), vehicle: distilled water + Tween-80 94 % of control | endpoint: mean survival time, dose: 50.0 mg/kg/injection, schedule: Q01DX005 (ip), vehicle: distilled water + Tween-80 94 % of control | endpoint: mean survival time, dose: 100.0 mg/kg/injection, schedule: Q01DX005 (ip), vehicle: distilled water + Tween-80 96 % of control | endpoint: mean survival time, dose: 200.0 mg/kg/injection, schedule: Q01DX005 (ip), vehicle: distilled water + Tween-80 104 % of control

N.N.N.N.N.N#CN=C(N)N.[Co+3].[O-][Cl+3]([O-])([O-])[O-]
inactive: endpoint: mean survival time, dose: 25.0 mg/kg/injection, schedule: Q04DX002 (ip), vehicle: saline 97 % of control | endpoint: mean survival time, dose: 50.0 mg/kg/injection, schedule: Q04DX002 (ip), vehicle: saline 101 % of control | endpoint: mean survival time, dose: 100.0 mg/kg/injection, schedule: Q04DX002 (ip), vehicle: saline 101 % of control

CCCC(C(=O)O)C(CCC)C(=O)O (stereo unspecified)
inactive: [1] 96 % of control | [2] 104 % of control | [3] 101 % of control

Cc1cc(C)c2c(C#N)cn(-c3ccccc3Cl)c2n1
inactive: endpoint: mean survival time, dose: 100.0 mg/kg/injection, schedule: Q04DX003 (ip), vehicle: saline 101 % of control | endpoint: mean survival time, dose: 200.0 mg/kg/injection, schedule: Q04DX003 (ip), vehicle: saline 101 % of control | endpoint: mean survival time, dose: 400.0 mg/kg/injection, schedule: Q04DX003 (ip), vehicle: saline 97 % of control

Cc1ccc(C)n1-c1ccccc1
inactive: endpoint: mean survival time, dose: 100.0 mg/kg/injection, schedule: Q01DX009 (ip), vehicle: saline + alcohol 107 % of control | [1] 103 % of control | endpoint: mean survival time, dose: 200.0 mg/kg/injection, schedule: Q01DX009 (ip), vehicle: saline + alcohol 105 % of control | [2] 106 % of control | endpoint: mean survival time, dose: 400.0 mg/kg/injection, schedule: Q01DX009 (ip), vehicle: saline + alcohol 100 % of control | [3] 95 % of control

CCC1OC2CS(=O)(=O)CC2O1 (stereo unspecified)
inactive: [1] 96 % of control | [2] 96 % of control | [3] 96 % of control

Cc1ccc(C2OC23CC(C)(C)c2ccccc2C3=O)cc1 (stereo unspecified)
inactive: endpoint: mean survival time, dose: 100.0 mg/kg/injection, schedule: Q01DX009 (ip), vehicle: other 100 % of control | endpoint: mean survival time, dose: 200.0 mg/kg/injection, schedule: Q01DX009 (ip), vehicle: other 96 % of control | endpoint: mean survival time, dose: 400.0 mg/kg/injection, schedule: Q01DX009 (ip), vehicle: other 107 % of control

CC1CCC(NC(=O)NCCF)CC1 (stereo unspecified)
inactive: endpoint: mean survival time, dose: 75.0 mg/kg/injection, schedule: Q01DX001 (ip), vehicle: other 100 % of control | endpoint: mean survival time, dose: 150.0 mg/kg/injection, schedule: Q01DX001 (ip), vehicle: other 115 % of control

CC(O)C(=O)[O][Hg][c]1ccccc1 (stereo unspecified)
inactive: endpoint: mean survival time, dose: 10.0 mg/kg/injection, schedule: Q04DX003 (ip), vehicle: saline with Tween-80 92 % of control

O=[N+]([O-])c1cccc(N=Cc2ccc3c(c2)OCO3)c1
inactive: endpoint: mean survival time, dose: 100.0 mg/kg/injection, schedule: Q04DX003 (ip), vehicle: alcohol 105 % of control | endpoint: mean survival time, dose: 200.0 mg/kg/injection, schedule: Q04DX003 (ip), vehicle: alcohol 108 % of control | endpoint: mean survival time, dose: 400.0 mg/kg/injection, schedule: Q04DX003 (ip), vehicle: alcohol 97 % of control

Cc1ccc(C(C)C)c(OCCCBr)c1
inactive: endpoint: mean survival time, dose: 25.0 mg/kg/injection, schedule: Q04DX003 (ip), vehicle: saline with Tween-80 101 % of control | endpoint: mean survival time, dose: 50.0 mg/kg/injection, schedule: Q04DX003 (ip), vehicle: saline with Tween-80 95 % of control | [1] 94 % of control and 95 % of control
